Reference: US11473089B2, “Aptamer for ADAMTS5 and use for aptamer for ADAMTS5” (RIBOMIC INC., priority 2017, dated 2022)
Where two headings read alike, the source gives them in different places. Blank lines part the entries; values can stand above or below the compound they belong to.

Key:
ADAMTS5 [1] = molecular target: T1, ADAMTS5 (Homo sapiens, UniProt Q9UNA0); assay: ADAMTS5 enzyme inhibition, aggrecan G1-IGD-G2 cleavage, SDS-PAGE detection (evaluation method 1); assay type: biochemical; settings: for % inhibitory activity: Table 3, final concentration of the nucleic acid 30 nM; for Inhibitory activity against ADAMTS5: Table 4; for inhibition rate % (10 nM aptamer): Table 5; for inhibitory activity against ADAMTS5 (in words, compared with parent sequence): enzyme assay as in Example 1
T1 construct: purchased R&D systems
T1 sequence (Q9UNA0 262-930): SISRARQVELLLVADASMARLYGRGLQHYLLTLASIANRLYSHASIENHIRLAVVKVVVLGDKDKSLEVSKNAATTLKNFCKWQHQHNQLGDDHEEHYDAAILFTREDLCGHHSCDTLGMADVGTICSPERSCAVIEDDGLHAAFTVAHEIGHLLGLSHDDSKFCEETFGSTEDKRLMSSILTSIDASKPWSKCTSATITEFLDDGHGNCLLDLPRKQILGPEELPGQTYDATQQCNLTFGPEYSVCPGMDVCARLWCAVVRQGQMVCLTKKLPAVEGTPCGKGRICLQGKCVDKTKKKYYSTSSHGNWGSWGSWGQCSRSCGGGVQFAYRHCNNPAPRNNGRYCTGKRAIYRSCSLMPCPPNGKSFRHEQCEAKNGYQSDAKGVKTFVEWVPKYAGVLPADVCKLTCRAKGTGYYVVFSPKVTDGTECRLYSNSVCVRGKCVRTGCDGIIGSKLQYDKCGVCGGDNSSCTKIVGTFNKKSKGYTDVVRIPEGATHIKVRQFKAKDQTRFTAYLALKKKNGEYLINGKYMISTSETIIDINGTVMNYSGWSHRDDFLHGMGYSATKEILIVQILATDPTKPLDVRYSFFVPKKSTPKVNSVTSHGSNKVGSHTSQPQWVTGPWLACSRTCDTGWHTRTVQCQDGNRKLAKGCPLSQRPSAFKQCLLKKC
Description: Whether an aptamer having the nucleotide sequence shown in SEQ ID NO: 1 inhibits the enzyme activity of ADAMTS5 was evaluated by the following method. As a substrate of ADAMTS5, the G1-IGD-G2 domain of aggrecan (manufactured by R&D systems) was used. ADAMTS5 specifically cleaves in between the 392nd glutamic acid and the 393rd alanine in the G1-IGD-G2 domain and produces two fragments. These fragments have faster electrophoretic mobility than uncleaved G1-IGD-G2. Thus, the enzyme activity of ADAMTS5 can be measured by quantifying the band intensity of G1-IGD-G2 by SDS-PAGE electrophoresis. The assay was performed in a solution A buffer with a reaction mixture volume of 10 μL. First, a mixture (10 μL) of a nucleic acid and ADAMTS5 was prepared and incubated at 25° C. for 15 min. To a substrate solution (5 μL) diluted with solution A was added a mixture (5 μL) of the nucleic acid and ADAMTS5 to start the enzyme reaction. The final concentration of ADAMTS5 in the reaction solution was 5 nM, and the final substrate concentration was 50 μg/mL. The reaction solution was incubated at 37° C. for 2 hr, 2 μL of solution D was added, and the mixture was heated at 95° C. for 2 min to stop the enzyme reaction of ADAMTS5. Solution D contains 0.25 M tris (pH 6.8), 10% SDS, 50% glycerol, 0.25% bromo phenolblue, and 20% 2-mercaptoethanol. The heat-treated reaction solution was electrophoresed by 7.5% SDS-PAGE and stained with SYPRO Orange (manufactured by Sigma-Aldrich). The staining was performed according to the manual of Sigma-Aldrich and detected using STORM840 manufactured by GE Healthcare. For analytical curves, uncleaved substrates 1000 ng, 400 ng, 160 ng, 64 ng, 25.6 ng, 10.24 ng, and 4.1 ng were electrophoresed, and staining and detection were performed in the same manner. The amount of uncleaved substrate in each reaction solution was quantified from the band intensity and the standard curve. The substrate cleavage efficiency of ADAMTS5 under these reaction conditions was 80-100%. The inhibition rate of the test substance was calculated using the following equation. inhibition rate (%)=(Sapt−SE)/(S0−SE)×100 wherein Sapt is the amount of an uncleaved substrate with the addition of a test substance, SE is the residual amount of an uncleaved substrate with the addition of ADAMTS5, and S0 is the residual amount of an uncleaved substrate without the addition of ADAMTS5.
The concentration of an inhibitor necessary for inhibiting 50% of the enzyme activity (IC50) was determined. IC50 is a mean of four measurements.

ADAMTS5 [2] = molecular target: T1, ADAMTS5; assay: binding activity to ADAMTS5 by surface plasmon resonance (Biacore T100); settings: Table 10
Description: The binding activity of aptamers having the nucleotide sequences shown in SEQ ID NOs: 1 and 2 to ADAMTS5 was evaluated by the surface plasmon resonance method. Biacore T100 manufactured by GE Healthcare was used for the measurement. The SA chip was used as the sensor chip, which had streptavidin immobilized thereon. About 800 RU of a 16-nucleotide Poly dT with biotin at the 5′-terminal was bound on the chip. […] ADAMTS5 for analyte was prepared at 0.1 μM, and injected at a flow rate of 30 μL/min for 60 sec. As the running buffer, solution C was used. The solution C is a mixed solution of 300 mM sodium chloride, 5.4 mM potassium chloride, 1.8 mM calcium chloride, 0.8 mM magnesium chloride, 20 mM tris (pH 7.6), and 0.05% Tween20.
SEQ ID NO: 2 has a sequence with one base deletion from the continuous 4 G bases in the consensus sequence, and it was shown from the measurement results of the binding activity that the continuous 4 G bases in the consensus sequence are important for the activity of aptamers. Sensorgram showing the binding of an aptamer having the nucleotide sequence shown in SEQ ID NO: 1 to ADAMTS5 is presented in FIG. 2. In Table 1, “++” indicates those with the proportion of ADAMTS5 binding amount (RU value) to the amount of aptamer immobilized on the SA chip (RU value) of not less than 40%, “+” indicates those with the proportion of not less than 10% and less than 40%, and “−” indicates those with the proportion of less than 10%.
The binding activity and enzyme inhibitory activity of aptamers having nucleotide sequences shown in SEQ ID NOs: 16-25 to ADAMTS5 were measured. The binding activity was evaluated by the surface plasmon resonance method. For the measurement, a method similar to that in Example 1 was used. The enzyme inhibitory activity was measured by a method similar to that in Example 1. […] The negative control nucleic acid refers to the nucleic acid pool used in the first round of the SELEX method. The “++” indicates those with the proportion of ADAMTS5 binding amount (RU value) to the amount of aptamer immobilized on the SA chip (RU value) of not less than 40%, and “+” indicates those with the proportion of less than 40%. […] “n.d.” means not determined.
The binding activity of the nucleic acids shown in SEQ ID NOs: 30-45 to ADAMTS5 was measured. The binding activity was evaluated by the surface plasmon resonance method. In the Table, “++” indicates those with the proportion of ADAMTS5 binding amount (RU value) to the amount of aptamer immobilized on the SA chip (RU value) of not less than 40%, “+” indicates those with the proportion of not less than 10% and less than 40%, and “−” indicates those with the proportion of less than 10%.

[3] = Table 9, electrophoresis detection, 10 nM nucleic acid

Compound: 3 (GGAUUGGGGCCUCCACAGCUGCUCAGCUUGGACUAAACCAAUCC; 2'-fluoro at CU, RNA at AG, backbone not given here) [compound 3]
- % inhibitory activity (ADAMTS5 [1]): 36.4%
- Inhibitory activity against ADAMTS5 (ADAMTS5 [1]; nucleic acid concentration 10 nM): 33.9%
- Inhibitory activity against ADAMTS5 (ADAMTS5 [1]; nucleic acid concentration 30 nM): 58.4%

Compound: 4 (GGCUUGGGGCCUCCACAGCUGCUCAGCUUGGACUAAACCAAGCC; 2'-fluoro at CU, RNA at AG, backbone not given here) [compound 4]
- % inhibitory activity (ADAMTS5 [1]): 23%

Compound: 5 (GGCUUGGGGCCUCCACAGCGCUCGCUUGGACUAAACCAAGCC; 2'-fluoro at CU, RNA at AG, backbone not given here) [compound 5]
- % inhibitory activity (ADAMTS5 [1]): 27%

Compound: 6 (GGCUUGGGGCCUCCACAGCUGUCAGCUUGGACUAAACCAAGCC; 2'-fluoro at CU, RNA at AG, backbone not given here) [compound 6]
- % inhibitory activity (ADAMTS5 [1]): 33.7%

Compound: 7 (GGCUUGGGGCCUCCACAGCUGCUCAGCUUGGACUAACCAAGCC; 2'-fluoro at CU, RNA at AG, backbone not given here) [compound 7]
- % inhibitory activity (ADAMTS5 [1]): −2.3%

Compound: 8 (GGCUUGGGGCCUCACAGCUGCUCAGCUUGACUAAACCAAGCC; 2'-fluoro at CU, RNA at AG, backbone not given here) [compound 8]
- % inhibitory activity (ADAMTS5 [1]): −8.6%

Compound: 9 (GGAUUGGGGCCUCCACAGCGUCGCUUGGACUAAACCAAUCC; 2'-fluoro at CU, RNA at AG, backbone not given here) [compound 9]
- % inhibitory activity (ADAMTS5 [1]): 5.9%

Compound: 10 (AUUGGGGCCUCCACAGCUGCUCAGCUUGGACUAAACCAAU; 2'-F and 2'-O-methyl modifications at positions not given here) [compound 10]
- inhibition rate % (10 nM aptamer) (ADAMTS5 [1]; 10 nM aptamer): 65%
- inhibitory activity (%) evaluation method 1 (ADAMTS5 [1]; Table 6, 10 nM aptamer): 65%

Compound: 11 (AUUGGGGCCUCCACAGCGCUCGCUUGGACUAAACCAAU; 2'-F and 2'-O-methyl modifications at positions not given here) [compound 11]
- inhibition rate % (10 nM aptamer) (ADAMTS5 [1]; 10 nM aptamer): 59.8%
- inhibitory activity (%) evaluation method 1 (ADAMTS5 [1]; Table 6, 10 nM aptamer): 59.8%

Compound: 12 (UUGGGGCCUCCACAGCGCUCGCUUGGACUAAACCAA; chemically modified, pattern not given here) [compound 12]
- inhibition rate % (10 nM aptamer) (ADAMTS5 [1]; 10 nM aptamer): 71.1%

Compound: 13 (GCUGGGGCCUCCACAGCGCUCGCUUGGACUAAACCAGC; chemically modified, pattern not given here) [compound 13]
- inhibitory activity (%) evaluation method 1 (ADAMTS5 [1]; Table 6, 10 nM aptamer): 58.4%
- inhibitory activity against ADAMTS5 (in words, compared with parent sequence) (ADAMTS5 [1]): does not affect the inhibitory activity

Compound: 14 (AUUGGGGCCUCCACAGCUUCGGCUUGGACUAAACCAAU; listed as RNA, chemistry not given here) [compound 14]
- inhibitory activity (%) evaluation method 1 (ADAMTS5 [1]; Table 6, 10 nM aptamer): 60.5%
- inhibitory activity against ADAMTS5 (in words, compared with parent sequence) (ADAMTS5 [1]): does not affect the inhibitory activity

Compound: 26 (GGGUAUAGGGGCCUCCACAGCGUAAGCUUGGACUUAAACCAUACCC; listed as RNA, chemistry not given here) [compound 26]
- inhibitory activity % 30 nM aptamer (ADAMTS5 [1]; Table 8, 30 nM aptamer): 63.5%

Compound: 27 (UAUAGGGGCCUCCACAGCGUAAGCUUGGACUUAAACCAUA; aptamer; 2'-O-methyl modifications copied from another aptamer, pattern not given here, some with 3' inverted dT) [compound 27]
- IC50 (ADAMTS5 [1]; Table 8, read-out: IC50): 5.9 nM

Compound: 28 (CGUAGGGGCCUCCACAGCGUAAGCUUGGACUUAAACCACG; aptamer; 2'-O-methyl modifications copied from another aptamer, pattern not given here, some with 3' inverted dT) [compound 28]
- IC50 (ADAMTS5 [1]; Table 8, read-out: IC50): 3.4 nM
- inhibitory activity (%) evaluation method 1 (ADAMTS5 [1]; [3]): 81%

Compound: 29 (CGUAGGGGCCUCCACAGCAUUCGCUUGGACACAAACCACG; aptamer; 2'-O-methyl modifications copied from another aptamer, pattern not given here, some with 3' inverted dT) [compound 29]
- inhibitory activity % 10 nM aptamer (ADAMTS5 [1]; Table 8, 10 nM aptamer): 84%
- inhibitory activity (%) evaluation method 1 (ADAMTS5 [1]; [3]): 84%

Compound: 30 (GGGUAUUGGGGCCUCCACAAUAGAUAAAUGGACUAAACCAACUCGA; 2'-fluoro at CU, RNA at AG, backbone not given here) [compound 30]
- binding activity (ADAMTS5 [2]): ++ (proportion of ADAMTS5 binding amount (RU value) to the amount of aptamer immobilized on the SA chip (RU value) of not less than 40%)

Compound: 31 (GGGUAUUGGGGCCUCCACAGUUGAAGCUUGGACUAAACCAAUCUCGA; aptamer; 2'-fluoro at CU, RNA at AG, backbone not given here) [compound 31]
- binding activity (ADAMTS5 [2]): ++ (proportion of ADAMTS5 binding amount (RU value) to the amount of aptamer immobilized on the SA chip (RU value) of not less than 40%)

Compound: 32 (GGGUAUUGGGGCCUCCACAGAAAAAUCUUGGACUAAACCAAUCUCGA; aptamer; 2'-fluoro at CU, RNA at AG, backbone not given here) [compound 32]
- binding activity (ADAMTS5 [2]): ++ (proportion of ADAMTS5 binding amount (RU value) to the amount of aptamer immobilized on the SA chip (RU value) of not less than 40%)

- IC50 (ADAMTS5 [1]; positive control, read-out: IC50 value): 90500 nM
Compound: Cn1nc(C(F)(F)F)c(/C=C2\SC(=S)NC2=O)c1SCc1ccc(Cl)cc1 [reference compound]
